According to patent publication US20150266864A1, “HETEROAROMATIC COMPOUNDS, METHOD FOR PREPARING THE COMPOUNDS, PHARMACEUTICAL COMPOSITIONS, USES AND METHOD FOR TREATING ACUTE AND CHRONIC PAIN” (CRISTÁLIA PRODUTOS QUÍMICOS FARMACÊUTICOS LTDA, priority 2012, published 2015):

Key:
rats subjected to SNL [1] = test: Spinal nerve ligation (SNL) L5 model, mechanical allodynia (digital Von Frey); format: in vivo, rat; details: for reversal of allodynia signs associated with neuropathic pain: ip during 7 days, 32.25 μmol/kg
Experimental: (§1) This experimental model was proposed by Kim and Chung [Kim, S. H.; Chung, J. M. Pain 1992, 50: 355-363] and consists of ligation of spinal nerves. Male Wistar rats, 180-220 g, were anesthetized with a mixture of ketamine and xylazine (60 mg/kg and 5 mg/kg, respectively) intraperitoneally. After the dorsal region asepsy, an incision was made between L5 and S1. The L6 transverse process was removed for locating the nerves L4 and L5, which were carefully isolated, and tight ligation of the L5 nerve with 6.0 silk thread was made, interrupting flow of the axon of the nerve. After this procedure, para-spinal muscles and skin were sutured, and then a topical antiseptic was applied. False operated animals (sham) were subjected to the same procedure, however the spinal nerve was not ligated.
To evaluate the development of mechanical allodynia, digital analgesimeter (Model EFF301; Insight Equipments), digitalized version coupled to a pointed filament (Von Frey model variant) was used. This test aims to assess changes in tactile sensitivity in response to a mechanical stimulus as a result of a neural damage. The device consisted of a hand-held force transducer fitted with a sensor tip, through which a pressure with increasing strength is applied against the footpad of the animals hindpaw to assess the threshold of paw withdrawal, that is, the digital analgesimeter records the maximal strength, in grams (g), in which the animal withstands until the paw withdrawal reflex.
Animals were placed in individual acrylic boxes and let to acclimate for 30 min before the beginning of the test. After this period, the thresholds of hindpaw withdrawal were determinded. For each hindpaw, five records of the withdrawal thresholds were made, and the average for each hindpaw was defined as the paw withdrawal threshold control.
(§2) The treatment started on the 7th day after surgery. Compounds were diluted in water or DMSO and administered through intraperitoneal route on daily basis, during 7 days, at a dose of […]. The effectiveness of tested compounds was assessed on days 1, 3, and 7 days after treatment, always before the next administration of the compound. Latencies were also assessed on days 1, 3, and 7 after treatment interruption.
(§3) Differences were considered significant when p<0.05.

rats subjected to SNL [2] = test: Spinal nerve ligation (SNL) L5 model, thermal hyperalgesia; format: in vivo, rat; details: for paw withdrawal latency, thermal hyperalgesia: after 7 days of treatment, 32.25 μmol/kg ip; for reversal of hyperalgesia signs associated with neuropathic pain: ip during 7 days, 32.25 μmol/kg
Experimental: as §1
This method aims to evaluate the animal behavior in response to hyperalgesic phenomenon resulting from the injury induced by the ligament of spinal nerve (L5). In this regard, paw withdrawal in response to thermal stimulus was used, and the thermal stimulus was induced by the radiant heat of an incandescent lamp bulb. The paw withdrawal test was performed as described for the assessment of thermal hyperalgesia in the sciatic nerve chronic constrictive injury model.
as §3, §2

[3] = system: rats subjected to sciatic nerve CCI; test: Chronic constrictive injury (CCI) of the sciatic nerve, thermal hyperalgesia, paw withdrawal test; format: in vivo, rat; details: 32.25 μmol/kg ip; for increase in latency of paw withdrawal: since the 3rd day of treatment
Experimental: The chronic constrictive injury (CCI) was induced by sciatic nerve ligation according to the method described by Bennett and Xie [Bennett. G. J.; Xie, Y. K. Pain […], 33: 87-107]. Male Wistar rats, weighing 180-240 g, were anesthetized with a mixture of ketamine and xylazine (60 mg/kg and 5 mg/kg, respectively), intraperitoneally. Through an incision of 0.5 cm (parallel and spaced about 10 mm from the left femur) the sciatic nerve was identified. With a thin glass rod, a small segment of sciatic nerve was exposed and four loosely ligatures were placed around the sciatic nerve spaced 1 mm each other using a 3-0 silk suture thread. After the procedure, the skin was sutured and a topical antiseptic was applied.
To assess animal behavior in response to hyperalgesic phenomenon resulting from sciatic nerve chronic constrictive injury, the model described by Hargreaves and Dubner was used [Hargreaves K., Dubner R., Brown F., Flores C., Joris J. Pain 1988, 32 (1): 77-88]. In this regard, paw withdrawal in response to a painful phenomenon was performed. This is a nociceptive test which involves a peripheral short thermal stimulus induced by the radiant heat of an incandescent lamp bulb. […] Radiant heat has an advantage over the other modes of thermal stimulation in that it produces no tactile stimulus. [Le Bars D., Gozariu M., Cadden S. W. Pharmacology Reviews, 2001, 53 (4), 597-652]. In this assay, a plantar test analgesimeter (ITC Life Science Inc, USA) was used.
Animals were placed in transparent acrylic boxes with tempered glass pane floor for 40 minutes to acclimate. After this period, the radiant heat was applied to the footpads of animals's hindpaws until they make the movement of paw withdrawal. The paw withdrawal latency was defined as the time recorded from the beginning of the radiant heat stimulus and the paw withdrawal. For each paw, three latency records were made, and the average value was used to define the paw withdrawal time control The maximum time that each animal was exposed to the radiant heat source (cut-off) was defined as three times the paw withdrawal time control, to avoid tissue injuries in animals's paws.
The day before surgery, rats, defined as “control before surgery”, were placed in acrylic boxes to the paw withdrawal test. On the 7th day after the surgery (CCI), the paw withdrawal test was again performed in order to verify neuropathic pain has been effectively developed in the left paw—defined as “post-surgery control.”
The paw withdrawal test was assessed during the days 1, 3, and 7 of the treatment (with amitriptyline hydrochloride or the compounds of examples of the instant invention) and on days 1, 3, and 7 after treatment interruption.
as §3

Swiss-type male mice = test: RotaRod performance test, motor coordination; details: for Mice residence time on the rotational cylinder: 9 rpm, cut off 180 s, mean ± SEM; for animal residence time on the rotational cylinder compared to controls: 15 minutes after administration
Experimental: The assessment of motor coordination in mice, by the rotarod performance test, was carried out to detect any possible sedative or muscle relaxant effect caused by the compounds of the present invention, previously tested in acute and neuropathic pain models. This test was carried out according to the method of described by Dunham & Miya and animal motor coordination was evaluated using RotaRod apparatus [Dunham M. S. & Miya. R. T. (1957). J. Amer. Pharmac. Assoc. Sci. Edit. 1957, 46, 208-209].
The RotaRod apparatus (Model 412 EFF, Insight Equipements, Brazil) is a device that measures motor coordination and thus evaluates balance alterations in mice. The apparatus consists of an acrylic box splited into four compartments with a rotational cylinder among them. The cylinder rotates at constant speed driven by a motor and regulated to the constant speed mode of 5-37 revolutions per minute (rpm). In this study the speed was set up to 9 rpm.
To remain on the rotational cylinder, the animal needs to move around, so that the motor coordination can be quantified. The four compartments have drop detection system, through the impact, a microprocessor circuit, for timing the permanence of the animal at the compartment, and for counting the number of falls.
The day before the test, Swiss-type male mice (19-25 g) were placed on the rotational cylinder, set up to the constant speed mode of 9 rpm for adaptation and learning. A group of 10 mice were used for each tested compound, and the total period spent on the rotational cylinder (in seconds) was recorded for a period of 180 seconds (cut off time) and it was accept a maximum of three falls for each animal. Motor coordination was assessed at times 0 (before treatment), 15, 30, 60 and 120 minutes after compounds administration at a dose of 32.25 μmol/kg.
All compounds were administered intraperitoneally (ip).
The Student's t-test was also used to compare means between two experimental groups. Differences were considered significant when p<0.05.

[4] = T 15 min after ip administration, 32.25 μmol/kg
[5] = T 30 min after ip administration, 32.25 μmol/kg (diazepam 2 mg/kg)
[6] = T 60 min after ip administration, 32.25 μmol/kg (diazepam 2 mg/kg)
[7] = T 120 min after ip administration, 32.25 μmol/kg (diazepam 2 mg/kg)

| SMILES | reversal of allodynia signs associated with neuropathic pain (rats subjected to SNL [1]) | paw withdrawal latency, thermal hyperalgesia (rats subjected to SNL [2]) | reversal of hyperalgesia signs associated with neuropathic pain (rats subjected to SNL [2]) | antinociceptive effect, paw withdrawal latency vs post-surgery control ([3]; first day of treatment) | latency increase, statistical significance ([3]; first day of treatment, p<0.05 or p<0.005) | Mice residence time on the rotational cylinder (Swiss-type male mice; [4]) [s] | Mice residence time on the rotational cylinder (Swiss-type male mice; [5]) [s] | Mice residence time on the rotational cylinder (Swiss-type male mice; [6]) [s] | Mice residence time on the rotational cylinder (Swiss-type male mice; [7]) [s] | paw withdrawal threshold, mechanical allodynia (rats subjected to SNL [1]; after 3 days of treatment, 32.25 μmol/kg ip, p<0.05) | increase in latency of paw withdrawal ([3]; p<0.05 or p<0.005) | animal residence time on the rotational cylinder compared to controls (Swiss-type male mice; 32.25 μmol/kg) |
| --- | --- | --- | --- | --- | --- | --- | --- | --- | --- | --- | --- | --- |
| CCOC(=O)C1(c2ccccc2)CCN(CCc2conc2-c2ccc(F)cc2)CC1.Cl [C17, Ethyl 1-{2-[3-(4-fluorophenyl)-1,2-oxazol-4-yl]ethyl}-4-phenylpiperidine-4-carboxylate hydrochloride] | effective in reverse the hyperalgesia and allodynia signs | statistically significant antinociceptive effect | effective in reverse the hyperalgesia and allodynia signs | antinociceptive effects in the first day of treatment | the latency increase was statistically significant | 127.4 | 153.3 | 163.2 | 175.6 |  |  |  |
| CN1CCN(CCc2c[nH]nc2-c2ccc(F)cc2)CC1.Cl.Cl.Cl.O.O [C11, 1-{2-[3-(4-fluorophenyl)-1H-pyrazol-4-yl]ethyl}-4-methylpiperazine trihydrochloride dihydrate] | effective in reverse the hyperalgesia and allodynia signs | statistically significant antinociceptive effect | effective in reverse the hyperalgesia and allodynia signs | antinociceptive effects in the first day of treatment |  | 180.0 | 177.0 | 178.5 | 176.7 | significant (p<0.05) paw withdrawal threshold | statistically significant increase in latency of paw withdrawal | equal to the time observed for the negative control, and significantly higher than the time observed for the control amitriptyline hydrochloride |
| Cl.Cl.Fc1ccc(-c2n[nH]cc2CCN2CCOCC2)cc1.O [C9, 4-{2-[3-(4-fluorophenyl)-1H-pyrazol-4-yl]ethyl}morpholine dihydrochloride monohydrate] | effective in reverse the hyperalgesia and allodynia signs | statistically significant antinociceptive effect | effective in reverse the hyperalgesia and allodynia signs |  |  | 180.0 | 180.0 | 180.0 | 175.3 |  | statistically significant increase in latency of paw withdrawal | equal to the time observed for the negative control, and significantly higher than the time observed for the control amitriptyline hydrochloride |
